Structures are written as SMILES.

human ACC2, sequence (O00763 129-2458): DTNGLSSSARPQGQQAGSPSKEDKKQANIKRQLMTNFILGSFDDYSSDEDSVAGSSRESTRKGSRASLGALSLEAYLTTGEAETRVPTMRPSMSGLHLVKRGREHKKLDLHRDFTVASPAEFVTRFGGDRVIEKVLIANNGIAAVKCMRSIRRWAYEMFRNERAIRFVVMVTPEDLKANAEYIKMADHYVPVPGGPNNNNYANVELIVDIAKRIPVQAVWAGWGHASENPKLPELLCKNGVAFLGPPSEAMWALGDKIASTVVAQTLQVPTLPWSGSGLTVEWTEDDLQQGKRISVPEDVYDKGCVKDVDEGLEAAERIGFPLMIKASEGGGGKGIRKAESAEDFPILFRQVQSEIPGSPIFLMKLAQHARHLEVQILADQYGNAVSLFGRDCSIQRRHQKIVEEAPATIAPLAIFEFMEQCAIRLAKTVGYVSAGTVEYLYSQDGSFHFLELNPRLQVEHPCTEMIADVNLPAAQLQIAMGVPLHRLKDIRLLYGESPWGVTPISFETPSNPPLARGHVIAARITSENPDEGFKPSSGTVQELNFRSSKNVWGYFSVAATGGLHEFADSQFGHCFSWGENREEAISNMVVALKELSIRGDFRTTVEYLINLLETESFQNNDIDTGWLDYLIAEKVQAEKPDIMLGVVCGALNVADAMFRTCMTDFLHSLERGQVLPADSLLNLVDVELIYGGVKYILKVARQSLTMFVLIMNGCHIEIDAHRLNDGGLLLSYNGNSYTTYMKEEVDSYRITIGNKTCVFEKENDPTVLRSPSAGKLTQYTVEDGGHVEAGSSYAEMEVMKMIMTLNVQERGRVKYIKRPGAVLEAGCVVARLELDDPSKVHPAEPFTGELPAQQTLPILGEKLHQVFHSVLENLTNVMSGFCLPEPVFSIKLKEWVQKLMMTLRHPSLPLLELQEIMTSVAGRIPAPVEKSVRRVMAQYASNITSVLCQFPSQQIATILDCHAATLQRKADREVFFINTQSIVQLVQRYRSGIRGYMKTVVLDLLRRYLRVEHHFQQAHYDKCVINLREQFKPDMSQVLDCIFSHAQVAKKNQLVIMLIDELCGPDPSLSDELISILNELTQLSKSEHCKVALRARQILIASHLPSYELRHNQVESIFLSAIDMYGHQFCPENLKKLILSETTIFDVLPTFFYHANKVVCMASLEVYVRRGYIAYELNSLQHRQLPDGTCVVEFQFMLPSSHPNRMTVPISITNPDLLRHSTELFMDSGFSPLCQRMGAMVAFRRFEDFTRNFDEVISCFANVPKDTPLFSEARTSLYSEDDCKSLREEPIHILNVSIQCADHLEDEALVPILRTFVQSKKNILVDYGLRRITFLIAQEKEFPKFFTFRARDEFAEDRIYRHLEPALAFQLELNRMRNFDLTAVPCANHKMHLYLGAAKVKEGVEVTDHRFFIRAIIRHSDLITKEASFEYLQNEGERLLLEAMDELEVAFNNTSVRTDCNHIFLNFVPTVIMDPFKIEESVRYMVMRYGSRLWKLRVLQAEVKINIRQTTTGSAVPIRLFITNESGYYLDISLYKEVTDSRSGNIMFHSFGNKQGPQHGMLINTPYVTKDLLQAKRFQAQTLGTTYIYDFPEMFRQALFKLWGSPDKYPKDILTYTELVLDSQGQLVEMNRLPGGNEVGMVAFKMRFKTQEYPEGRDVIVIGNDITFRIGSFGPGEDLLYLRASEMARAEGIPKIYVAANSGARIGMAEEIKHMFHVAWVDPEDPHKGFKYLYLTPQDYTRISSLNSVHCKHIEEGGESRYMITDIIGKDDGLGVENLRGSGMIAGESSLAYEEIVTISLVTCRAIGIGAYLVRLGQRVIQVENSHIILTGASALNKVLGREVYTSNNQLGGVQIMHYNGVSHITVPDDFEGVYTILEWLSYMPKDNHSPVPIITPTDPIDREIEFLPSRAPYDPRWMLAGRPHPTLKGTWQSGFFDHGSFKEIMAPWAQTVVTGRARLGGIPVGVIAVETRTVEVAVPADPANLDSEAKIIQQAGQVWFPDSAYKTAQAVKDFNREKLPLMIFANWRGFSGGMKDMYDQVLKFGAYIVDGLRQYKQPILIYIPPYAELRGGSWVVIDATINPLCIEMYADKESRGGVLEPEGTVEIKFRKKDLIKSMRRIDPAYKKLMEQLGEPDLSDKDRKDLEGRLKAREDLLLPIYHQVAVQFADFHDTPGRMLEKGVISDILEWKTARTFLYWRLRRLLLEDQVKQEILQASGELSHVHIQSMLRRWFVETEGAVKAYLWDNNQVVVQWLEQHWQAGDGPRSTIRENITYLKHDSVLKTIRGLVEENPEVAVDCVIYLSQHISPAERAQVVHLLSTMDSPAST

The target in the assay is human ACC2 (Homo sapiens (Human), UniProt O00763). As to the kind of experiment: ACC2 assay: spectrophotometric 384 well assay (coupled lactate dehydrogenase/pyruvate kinase). The conditions noted are these: hACC2 construct lacking the 128 N-terminal amino acids, 25° C., 340 nm. In kind it is biochemical. How it is done:
Spectrophotometric 384 Well Assay
Malonyl CoA formation by acetyl CoA carboxylases is stoichiometrically linked to the consumption of ATP. ACC2 activity is measured in a […] kinetic method measuring ADP generated during the ACC reaction using a coupled lactate dehydrogenase/pyruvate kinase reaction.
For biological testing, a human ACC2 construct which lacks the 128 amino acids at the N-terminus for increased solubility (nt 385-6966 in Genbank entry AJ575592) is cloned. The protein is then expressed in insect cells using a baculoviral expression system. Protein purification is performed by anion exchange.
All compounds are dissolved in dimethyl sulfoxide (DMSO) to a concentration of 10 mM.
Assay reactions are then carried out in 384-well plates, with hACC2 in an appropriate dilution and at final assay concentrations (f.c.) of 100 mM Tris (pH 7.5), 10 mM trisodium citrate, 25 mM KHCO3, 10 mM MgCl2, 0.5 mg/ml BSA, 3.75 mM reduced L-glutathione, 15 U/ml lactate dehydrogenase, 0.5 mM phosphoenolpyruvate, 15 U/ml pyruvate kinase, compounds at different concentrations at final DMSO concentrations of 1%.
The enzymatic reaction is then started by addition of a mixture of NADH, acetyl Coenzyme A (both […].) and ATP (500 uM f.c.). The decrease of the optical density (slope S) is then determined at 25° C. at a wavelength of 340 nm over 15 minutes in a spectrophotometric reader.
Each assay microtiter plate contains wells with vehicle instead of compound as controls for the non-inhibited enzyme (100% CTL; ‘HIGH’) and wells without acetyl-CoA as controls for non-specific NADH degradation (0% CTL; ‘LOW’).
The slope S is used for calculation of % CTL=(S(compound)−S(‘LOW’))/(S(‘HIGH’)−S(‘LOW’))*100. Compounds will give values between 100% CTL (no inhibition) and 0% CTL (complete inhibition).
For IC50 value determination, the sample slope in the presence of the test compound after subtraction of the low controls (S(compound)−S(‘LOW’)) are used.
An IC50 value is derived from the compound slopes at different dosages after subtraction of the low controls (S(compound)-S(‘LOW’)) by non-linear regression curve fitting (equation y=(A+((B−A)/(1+((C/x)^D))))).
`CC(=O)NC(C)c1ccc(CN2CCc3cc(OCC4CC(F)(F)C4)ccc3C2)cc1` (stereo not drawn) [Example 1.015]: the IC50 came out at 47 nM.

In turn, `CC(=O)NC(C)c1ccc(CN2CCc3c(ccc(OCCCF)c3Cl)C2)cc1` (stereo not drawn) [Example 1.039] returned an IC50 of 57 nM.

`COc1c(OC(C)C)ccc2c1CCN(Cc1ccc([C@H](C)NC(C)=O)cc1)C2` [Example 1.069] showed an IC50 of 418 nM.

For `COc1c(OCC2CC2(F)F)ccc2c1CCN(Cc1ccc([C@H](C)NC(=O)C3CC3)cc1)C2` (stereo partly drawn) [Example 1.053], it took 142 nM to reach half-maximal inhibition (IC50). Against the preceding compound, the IC50 is about 2.9-fold lower.

The compound `C[C@H](NC(=O)CC#N)c1ccc(CN2Cc3ccc(OCC4CC4)cc3C(F)C2)cc1` (stereo partly drawn) [Example 3.026] came in with an IC50 of 49 nM.

The compound `CC(=O)N[C@@H](C)c1ccc(CN2Cc3ccc(OCC4CC4)cc3C(F)(F)C2)cc1` [Example 1.097] displayed an IC50 of 38 nM.

The compound `CC(C#N)C(=O)N[C@@H](C)c1ccc(CN2CCc3cc(OCC4CC4(F)F)ccc3C2)cc1` (stereo partly drawn) [Example 3.003] returned an IC50 of 91 nM.

Consider `C[C@H](NC(=O)C1CCC1)c1ccc(CN2Cc3ccc(OCC4CC4)cc3C(O)C2)cc1` (stereo partly drawn) [Example 3.041], for which half-maximal inhibition (IC50) was put at 490 nM.

`CCCOc1ccc2c(c1)CCN(Cc1ccc([C@H](C)NC(=O)C3CC3)cc1)C2` [Example 1.041] registered an IC50 of 57 nM.

Take `C[C@H](NC(=O)C1CCC(=O)N1)c1ccc(CN2Cc3ccc(OCC4CC4)cc3C(F)C2)cc1` (stereo partly drawn) [Example 3.035]: the IC50 is 143 nM.

`COc1c(OCC(F)F)ccc2c1CCN(Cc1ccc([C@H](C)NC(C)=O)cc1)C2` [Example 1.071]: the IC50 stood at 340 nM.

`CC(=O)NC(C)c1ccc(CN2CCc3cc(OC(F)(F)F)ccc3C2)cc1` (stereo not drawn) [Example 1.007] yielded an IC50 of 291 nM.

`COc1ccc2c(c1Cl)CCN(Cc1ccc(C(C)NC(C)=O)cc1)C2` (stereo not drawn) [Example 1.024]: half-maximal inhibition (IC50) was put at 415 nM.

On to `C[C@H](NC(=O)CC#N)c1ccc(CN2Cc3ccc(OCC4CC4(F)F)cc3C(O)C2)cc1` (stereo partly drawn) [Example 2.037], for which the midpoint of inhibition, the IC50, lay at 806 nM.

Compound `CC(=O)NC(C)c1ccc(CN2CCc3cc(OC(C)C)ccc3C2)cc1` (stereo not drawn) [Example 1.021] returned an IC50 of 110 nM.

In turn, `C[C@H](NC(=O)c1cncs1)c1ccc(CN2Cc3ccc(OCC4CC4)cc3C(O)C2)cc1` (stereo partly drawn) [Example 3.047] displayed a concentration for half-maximal inhibition (IC50) of 308 nM. This IC50 is about 2.8-fold higher than that of the compound before.

As to `C[C@H](NC(=O)CO)c1ccc(CN2CC(=O)c3cc(OCC4CC4)ccc3C2)cc1` [Example 2.041], the IC50 amounted to 600 nM.

Turning to `CCC(=O)N[C@@H](C)c1ccc(CN2CCc3cc(OCC4CC4(F)F)ccc3C2)cc1` (stereo partly drawn) [Example 4.001, N—((S)-1-{4-[6-(2,2-Difluoro-cyclopropylmethoxy)-3,4-dihydro-1H-isoquinolin-2-ylmethyl]-phenyl}-ethyl)-propionamide], the midpoint of inhibition, the IC50, lay at 37 nM.

For the compound `CC(=O)NC(C)c1ccc(CN2CCc3c(ccc(OCC4CC4(F)F)c3Br)C2)cc1` (stereo not drawn) [Example 1.031], the half-inhibitory concentration (IC50) came out at 76 nM.

In turn, `Cc1[nH]ncc1C(=O)N[C@@H](C)c1ccc(CN2CCc3cc(OCC4CC4(F)F)ccc3C2)cc1` (stereo partly drawn) [Example 3.012] showed an IC50 of 122 nM. Compared with the last compound, the IC50 is about 1.6-fold higher.

Take `C[C@H](NC(=O)c1cncnc1)c1ccc(CN2CC(=O)c3cc(OCC4CC4(F)F)ccc3C2)cc1` (stereo partly drawn) [Example 2.038]: half-maximal inhibition (IC50) required 819 nM. This IC50 lies about 6.7-fold higher than the previous one.

The compound `CC(=O)NC(C)c1ccc(CN2CCc3c(ccc(OCC4CC4(F)F)c3Cl)C2)cc1` (stereo not drawn) [Example 1.025] gave an IC50 of 49 nM.

The compound `CC(=O)N[C@@H](C)c1ccc(CN2CCc3c(cccc3C(F)(F)F)C2)cc1` [Example 7.002] came in with an IC50 of 104 nM. This IC50 lies about 2.1-fold higher than the previous one.

The compound `COc1c(OC2CCC2)ccc2c1CCN(Cc1ccc([C@H](C)NC(C)=O)cc1)C2C` (stereo partly drawn) [Example 1.085] registered an IC50 of 280 nM. Compared with the last compound, the IC50 is about 2.7-fold higher.

As for `C[C@H](NC(=O)C(F)(F)F)c1ccc(CN2CCc3cc(OCC4CC4(F)F)ccc3C2)cc1` (stereo partly drawn) [Example 4.002], half-maximal inhibition (IC50) was put at 53 nM.

As to `C[C@H](NC(=O)C1(N)CC1)c1ccc(CN2Cc3ccc(OCC4CC4)cc3C(F)C2)cc1` (stereo partly drawn) [Example 3.055], half-maximal inhibition (IC50) required 55 nM.

The compound `CCNC(=O)N[C@@H](C)c1ccc(CN2CCc3cc(OCC4CC4(F)F)ccc3C2)cc1` (stereo partly drawn) [Example 5.001, 1-((S)-1-{4-[6-(2,2-Difluoro-cyclopropylmethoxy)-3,4-dihydro-1H-isoquinolin-2-ylmethyl]-phenyl}-ethyl)-3-ethyl-urea] came in with an IC50 of 76 nM. This IC50 and that of the compound before are within 1.5-fold of each other.

`C[C@H](NC(=O)C1(C)CC1)c1ccc(CN2CCc3cc(OCC4CC4(F)F)ccc3C2)cc1` (stereo partly drawn) [Example 3.015] returned an IC50 of 24 nM.

Compound `CC(=O)NC(C)c1ccc(CN2CCc3c(ccc(OC4CCC4)c3Cl)C2)cc1` (stereo not drawn) [Example 1.037] displayed an IC50 of 80 nM.

For `C[C@H](NC(=O)c1ccon1)c1ccc(CN2CCc3cc(OCC4CC4(F)F)ccc3C2)cc1` (stereo partly drawn) [Example 3.011], the IC50 was determined as 52 nM. This IC50 is about 1.5-fold lower than that of the compound before.

For the compound `C[C@H](NC(=O)c1cn[nH]c1)c1ccc(CN2Cc3ccc(OCC4CC4)cc3C(F)C2)cc1` (stereo partly drawn) [Example 3.064], the IC50 stood at 52 nM.

`CCC(=O)N[C@@H](C)c1ccc(CN2CCc3c(Br)cccc3C2)cc1` [Example 2.011] had an IC50 of 194 nM.

For `CCOc1ccc2c(c1)CCN(Cc1ccc(C(C)NC(C)=O)cc1)C2` (stereo not drawn) [Example 1.016], the IC50 was 273 nM.

Consider `COc1cccc2c1CCN(Cc1ccc([C@H](C)NC(=O)C3CC3)cc1)C2` [Example 2.002], for which inhibition was half-maximal at 237 nM (IC50).

Turning to `C[C@H](NC(=O)C1(C(F)(F)F)CC1)c1ccc(CN2CCc3cc(OCC4CC4(F)F)ccc3C2)cc1` (stereo partly drawn) [Example 3.005], the IC50 came to 59 nM.

`C[C@H](NC(=O)c1cncs1)c1ccc(CN2Cc3ccc(OCC4CC4)cc3C(F)C2)cc1` (stereo partly drawn) [Example 3.048] came in with an IC50 of 59 nM.

`C[C@H](NC(=O)c1cn[nH]c1)c1ccc(CN2CCc3cc(OCC4CC4(F)F)ccc3C2)cc1` (stereo partly drawn) [Example 3.010]: the IC50 was 25 nM.

`C[C@H](NC(=O)Cc1cncnc1)c1ccc(CN2CC(=O)c3cc(OCC4CC4)ccc3C2)cc1` [Example 2.044] displayed an IC50 of 446 nM.

Take `C[C@H](NC(=O)CO)c1ccc(CN2Cc3ccc(OCC4CC4)cc3C(F)C2)cc1` (stereo partly drawn) [Example 3.059]: 47 nM corresponded to half-maximal inhibition (IC50).

`CC(=O)N[C@@H](C)c1ccc(CN2CCc3c(ccc(Cl)c3Cl)C2)cc1` [Example 1.078] registered a concentration for half-maximal inhibition (IC50) of 67 nM. The IC50 values of the last two compounds are within 1.5-fold of each other.

Compound `C[C@H](NC(=O)C1CC1)c1ccc(CN2Cc3ccc(OCC4CC4)cc3C(O)C2)cc1` (stereo partly drawn) [Example 3.038] came in with an IC50 of 198 nM.

`COc1c(OCC2CC2(F)F)ccc2c1CCN(Cc1ccc([C@H](C)NC(C)=O)cc1)C2C` (stereo partly drawn) [Example 1.084] returned an IC50 of 263 nM.

Consider `CCCOc1ccc2c(c1OC)CCN(Cc1ccc([C@H](C)NC(C)=O)cc1)C2` [Example 1.074], for which the IC50 was 79 nM.

`C[C@H](NC(=O)C1CC(F)C1)c1ccc(CN2CCc3cc(OCC4CC4(F)F)ccc3C2)cc1` (stereo partly drawn) [Example 3.007]: it took 50 nM to reach half-maximal inhibition (IC50).

Compound `C[C@H](NC(=O)[C@@H]1CCC(=O)N1)c1ccc(CN2Cc3ccc(OCC4CC4)cc3C(F)C2)cc1` (stereo partly drawn) [Example 3.052] showed an IC50 of 153 nM.

Turning to `COC(=O)c1ccc2c(c1)CCN(Cc1ccc(C(C)NC(C)=O)cc1)C2` (stereo not drawn) [Example 1.002], inhibition was half-maximal at 524 nM (IC50). This IC50 is about 3.4-fold higher than that of the compound before.

The compound `C[C@H](NC(=O)CC#N)c1ccc(CN2CC(=O)c3cc(OCC4CC4(F)F)ccc3C2)cc1` (stereo partly drawn) [Example 2.04] returned an IC50 of 450 nM.

Consider `CC(=O)N[C@@H](C)c1ccc(CN2CCc3cc(OCC4CC4(F)F)ccc3C2)cc1` (stereo partly drawn) [Example 7.003], for which it took 26 nM to reach half-maximal inhibition (IC50). Against the preceding compound, the IC50 is about 17-fold lower.

The record behind these values is patent publication US9340510B2, “Tetrahydroisoquinoline derivatives, pharmaceutical compositions and uses thereof” (Boehringer Ingelheim International GmbH, priority 2014, dated 2016).
